Results on one compound are retold here after patent publication EP1124440B1, “USE OF […] FOR FOODSTUFF AND COSMETIC MATERIAL” (Aquacal Limited, priority 1998, dated 2000).

Read-outs that look alike come from different tables or passages of the source.

For series [1] the following is noted: biscuits cooked for exactly eleven minutes. From the text: Four batches of biscuits were made using the following recipe:
(§1) The biscuits were cooked for exactly eleven minutes and then analysed.
(§2) The following parameters were examined: friability, water activity (Aw) and colour.

For series [2] the following is noted: water activity; biscuits cooked for exactly eleven minutes.
Excerpt: as §1, §2

For series [3] the following is noted: biscuits. Here is the method:
Colour was measured using LAB values. L. Brightness A. Red B. Yellow
The LAB values of the biscuits were measured using a Minolta colour meter.

For series [4] the following is noted: ice-cream; B = Yellow Colour. Here is the method:
3. Colour was measured using a Minolta colour meter and the results were expressed using LAB values: L = Lightness A = Red Colour B = Yellow Colour
4. A further batch of ice-cream was made to assess if calcium addition effected the over-run properties of the ice-cream.

As to `O=C([O-])[O-].[Ca+2]` [Calcium Carbonate], the Friability result in series [1] is given as “significantly reduced”. In series [2], the Aw entry is listed as “significantly increased”. In addition, the A value entry in series [3] (A = Red) is on record as “significantly reduced”. Also, the figures for the B value result in series [3] (B = Yellow) and in series [4] were “did not effect this value” and “significant difference”, respectively. In series [3] (L = Brightness), this compound yielded a L value of 72.87.
